Each molecule was assayed on GM1 production in Jurkat cells (assay: cells). Conditions: not given.
Format: cell-based

Row | SMILES | IC50 [nM]
1 | COc1cc2c(cc1-c1ccc(CC(C)C)cc1)CC(C)(C)C2NC(=O)O[C@@H]1CN2CCC1CC2 (stereo partly drawn) [Example 315, (S)-quinuclidin-3-yl (5-(4-isobutylphenyl)-6-methoxy-2,2-dimethyl-2,3-dihydro-1H-inden-1-yl)carbamate] | 11.3

Same assay, conditions: Homo sapiens, Jurkat, 72 h

Row | SMILES | IC50 [nM]
2 | COc1ccnc(OC)c1-c1ccc2c(c1)CC(C)(C)C2NC(=O)O[C@@H]1CN2CCC1CC2 (stereo partly drawn) [Example 271, (S)-quinuclidin-3-yl (5-(2,4-dimethoxypyridin-3-yl)-2,2-dimethyl-2,3-dihydro-1H-inden-1-yl)carbamate] | 30.6
3 | O=C(NC1CCc2cc(-c3cccc(F)c3)ccc21)O[C@@H]1CN2CCC1CC2 (stereo partly drawn) [Example 5, (S)-quinuclidin-3-yl (5-(3-fluorophenyl)-2,3-dihydro-1H-inden-1-yl)carbamate] | 70.2
4 | O=C(NC1CCc2cc(-c3cc(F)c(F)cc3F)ccc21)O[C@@H]1CN2CCC1CC2 (stereo partly drawn) [Example 21, (S)-quinuclidin-3-yl (5-(2,4,5-trifluorophenyl)-2,3-dihydro-1H-inden-1-yl)carbamate] | 127
5 | CC1(C)Cc2cc(-c3ccc(F)c(F)c3)ccc2C1NC(=O)O[C@@H]1CN2CCC1CC2 (stereo partly drawn) [Example 87, (S)-quinuclidin-3-yl (5-(3,4-difluorophenyl)-2,2-dimethyl-2,3-dihydro-1H-inden-1-yl)carbamate] | 42.8
6 | CCC1(CC)Cc2cc(-c3ccsc3)ccc2C1NC(=O)O[C@@H]1CN2CCC1CC2 (stereo partly drawn) [Example 306, (S)-quinuclidin-3-yl (2,2-diethyl-5-(thiophen-3-yl)-2,3-dihydro-1H-inden-1-yl)carbamate] | 27.5
7 | CCCCOc1cccc(-c2cc3c(cc2OC)C(NC(=O)O[C@@H]2CN4CCC2CC4)C(C)(C)C3)c1 (stereo partly drawn) [Example 342, (S)-quinuclidin-3-yl (5-(3-butoxyphenyl)-6-methoxy-2,2-dimethyl-2,3-dihydro-1H-inden-1-yl)carbamate] | 21.6
8 | CC1(C)Cc2cc(-c3cc(Cl)ccc3Cl)ccc2C1NC(=O)O[C@@H]1CN2CCC1CC2 (stereo partly drawn) [Example 93, (S)-quinuclidin-3-yl (5-(2,5-dichlorophenyl)-2,2-dimethyl-2,3-dihydro-1H-inden-1-yl)carbamate] | 10.5
9 | CC1(C)Cc2ccc(-c3ccc(F)c(F)c3F)cc2C1NC(=O)O[C@@H]1CN2CCC1CC2 (stereo partly drawn) [Example 67, (S)-quinuclidin-3-yl (2,2-dimethyl-6-(2,3,4-trifluorophenyl)-2,3-dihydro-1H-inden-1-yl)carbamate] | 144
10 | CC1(C)Cc2ccc(-c3cccc(F)c3)cc2C1NC(=O)O[C@@H]1CN2CCC1CC2 (stereo partly drawn) [Example 53, (S)-quinuclidin-3-yl (6-(3-fluorophenyl)-2,2-dimethyl-2,3-dihydro-1H-inden-1-yl)carbamate] | 80
11 | CCCOc1cc(F)cc(-c2ccc3c(c2)CC(C)(C)C3NC(=O)O[C@@H]2CN3CCC2CC3)c1 (stereo partly drawn) [Example 257, (S)-quinuclidin-3-yl (5-(3-fluoro-5-propoxyphenyl)-2,2-dimethyl-2,3-dihydro-1H-inden-1-yl)carbamate] | 27.4
12 | COc1cc2c(cc1-c1cccc(C(C)C)c1)CC(C)(C)C2NC(=O)O[C@@H]1CN2CCC1CC2 (stereo partly drawn) [Example 336, (S)-quinuclidin-3-yl (5-(3-isopropylphenyl)-6-methoxy-2,2-dimethyl-2,3-dihydro-1H-inden-1-yl)carbamate] | 48
13 | CC(C)Cc1cccc(-c2ccc3c(c2)CC(C)(C)C3NC(=O)O[C@@H]2CN3CCC2CC3)c1 (stereo partly drawn) [Example 269, (S)-quinuclidin-3-yl (5-(3-isobutylphenyl)-2,2-dimethyl-2,3-dihydro-1H-inden-1-yl)carbamate] | 6.5
14 | CC1(C)Cc2cc(/C=C/C3CCCCC3)ccc2C1NC(=O)O[C@@H]1CN2CCC1CC2 (stereo partly drawn) [Example 275, (S)-quinuclidin-3-yl (5-((E)-2-cyclohexylvinyl)-2,2-dimethyl-2,3-dihydro-1H-inden-1-yl)carbamate] | 25
15 | CC(C)Cc1cccc(-c2cc3c(cc2F)C(NC(=O)O[C@@H]2CN4CCC2CC4)C(C)(C)C3)c1 (stereo partly drawn) [Example 372, (S)-quinuclidin-3-yl (6-fluoro-5-(3-isobutylphenyl)-2,2-dimethyl-2,3-dihydro-1H-inden-1-yl)carbamate] | 46.2
16 | CC1(C)Cc2cc(-c3cc(F)cc(F)c3)ccc2C1NC(=O)O[C@@H]1CN2CCC1CC2 (stereo partly drawn) [Example 90, (S)-quinuclidin-3-yl (5-(3,5-difluorophenyl)-2,2-dimethyl-2,3-dihydro-1H-inden-1-yl)carbamate] | 37.9
17 | CC(C)Oc1ccc(Cl)cc1-c1ccc2c(c1)CC(C)(C)C2NC(=O)O[C@@H]1CN2CCC1CC2 (stereo partly drawn) [Example 217, (S)-quinuclidin-3-yl (5-(5-chloro-2-isopropoxyphenyl)-2,2-dimethyl-2,3-dihydro-1H-inden-1-yl)carbamate] | 72.1
18 | O=C(NC1CCc2cc(-c3cccc(F)c3F)ccc21)O[C@@H]1CN2CCC1CC2 (stereo partly drawn) [Example 17, (S)-quinuclidin-3-yl (5-(2,3-difluorophenyl)-2,3-dihydro-1H-inden-1-yl)carbamate] | 27.6

Row | SMILES | IC50 [nM]
19 | COc1c(F)cccc1-c1ccc2c(c1)CC(C)(C)C2NC(=O)O[C@@H]1CN2CCC1CC2 (stereo partly drawn) [Example 236, (S)-quinuclidin-3-yl (5-(3-fluoro-2-methoxyphenyl)-2,2-dimethyl-2,3-dihydro-1H-inden-1-yl)carbamate] | 32.4
20 | CC1(C)Cc2cc(-c3ccccc3C(F)(F)F)ccc2C1NC(=O)O[C@@H]1CN2CCC1CC2 (stereo partly drawn) [Example 83, (S)-quinuclidin-3-yl (2,2-dimethyl-5-(2-(trifluoromethyl)phenyl)-2,3-dihydro-1H-inden-1-yl)carbamate] | 3.7
21 | CCC1(CC)Cc2cc(-c3ccc(C(C)C)cc3)ccc2C1NC(=O)O[C@@H]1CN2CCC1CC2 (stereo partly drawn) [Example 282, (S)-quinuclidin-3-yl (2,2-diethyl-5-(4-isopropylphenyl)-2,3-dihydro-1H-inden-1-yl)carbamate] | 5.6
22 | COc1cccc(-c2ccc3c(c2)CC(C)(C)C3NC(=O)O[C@@H]2CN3CCC2CC3)c1F (stereo partly drawn) [Example 231, (S)-quinuclidin-3-yl (5-(2-fluoro-3-methoxyphenyl)-2,2-dimethyl-2,3-dihydro-1H-inden-1-yl)carbamate] | 24.3
23 | CC1(C)Cc2cc(-c3ccc(F)cc3)ccc2C1NC(=O)O[C@@H]1CN2CCC1CC2 (stereo partly drawn) [Example 73, (S)-quinuclidin-3-yl (5-(4-fluorophenyl)-2,2-dimethyl-2,3-dihydro-1H-inden-1-yl)carbamate] | 26
24 | CCC1(CC)Cc2cc(-c3ccc(OC)cc3OC)ccc2C1NC(=O)O[C@@H]1CN2CCC1CC2 (stereo partly drawn) [Example 296, (S)-quinuclidin-3-yl (5-(2,4-dimethoxyphenyl)-2,2-diethyl-2,3-dihydro-1H-inden-1-yl)carbamate] | 15.6
25 | CC1(C)Cc2cc(-c3ccc(OC(F)(F)F)cc3)ccc2C1NC(=O)O[C@@H]1CN2CCC1CC2 (stereo partly drawn) [Example 76, (S)-quinuclidin-3-yl (2,2-dimethyl-5-(4-(trifluoromethoxy)phenyl)-2,3-dihydro-1H-inden-1-yl)carbamate] | 3.7
26 | COc1ccc(C#N)cc1-c1ccc2c(c1)CC(C)(C)C2NC(=O)O[C@@H]1CN2CCC1CC2 (stereo partly drawn) [Example 244, (S)-quinuclidin-3-yl (5-(5-cyano-2-methoxyphenyl)-2,2-dimethyl-2,3-dihydro-1H-inden-1-yl)carbamate] | 38
27 | COCCOc1cccc(-c2ccc3c(c2)CC(C)(C)C3NC(=O)O[C@@H]2CN3CCC2CC3)c1 (stereo partly drawn) [Example 98, (S)-quinuclidin-3-yl (5-(3-(2-methoxyethoxy)phenyl)-2,2-dimethyl-2,3-dihydro-1H-inden-1-yl)carbamate] | 7.5
28 | COc1ccc(-c2cc3c(cc2F)C(NC(=O)O[C@@H]2CN4CCC2CC4)C(C)(C)C3)cc1 (stereo partly drawn) [Example 355, (S)-quinuclidin-3-yl (6-fluoro-5-(4-methoxyphenyl)-2,2-dimethyl-2,3-dihydro-1H-inden-1-yl)carbamate] | 62.8
29 | CC1(C)Cc2cc(-c3cc(F)c(F)cc3F)ccc2C1NC(=O)O[C@@H]1CN2CCC1CC2 (stereo partly drawn) [Example 96, (S)-quinuclidin-3-yl (2,2-dimethyl-5-(2,4,5-trifluorophenyl)-2,3-dihydro-1H-inden-1-yl)carbamate] | 16.2
30 | CC1(C)Cc2cc(-c3ccc4c(c3)OCCO4)ccc2C1NC(=O)O[C@@H]1CN2CCC1CC2 (stereo partly drawn) [Example 112, (S)-quinuclidin-3-yl (5-(2,3-dihydrobenzo[b][1,4]dioxin-6-yl)-2,2-dimethyl-2,3-dihydro-1H-inden-1-yl)carbamate] | 35.6
31 | COc1c(Cl)ccc(-c2ccc3c(c2)CC(C)(C)C3NC(=O)O[C@@H]2CN3CCC2CC3)c1Cl (stereo partly drawn) [Example 162, (S)-quinuclidin-3-yl (5-(2,4-dichloro-3-methoxyphenyl)-2,2-dimethyl-2,3-dihydro-1H-inden-1-yl)carbamate] | 38.8
32 | CC1(C)Cc2cc(-c3cccc(C(F)F)c3)ccc2C1NC(=O)O[C@@H]1CN2CCC1CC2 (stereo partly drawn) [Example 155, (S)-quinuclidin-3-yl (5-(3-(difluoromethyl)phenyl)-2,2-dimethyl-2,3-dihydro-1H-inden-1-yl)carbamate] | 8.4
33 | CC1(C)Cc2cc(-c3cc(C(F)(F)F)ccc3Cl)ccc2C1NC(=O)O[C@@H]1CN2CCC1CC2 (stereo partly drawn) [Example 221, (S)-quinuclidin-3-yl (5-(2-chloro-5-(trifluoromethyl)phenyl)-2,2-dimethyl-2,3-dihydro-1H-inden-1-yl)carbamate] | 16.9
34 | O=C(NC1CCc2ccc(-c3cccc(OC(F)(F)F)c3)cc21)O[C@@H]1CN2CCC1CC2 (stereo partly drawn) [Example 32, (S)-quinuclidin-3-yl (6-(3-(trifluoromethoxy)phenyl)-2,3-dihydro-1H-inden-1-yl)carbamate] | 120
35 | O=C(NC1c2ccc(-c3ccc(F)cc3)cc2CC12CC2)O[C@@H]1CN2CCC1CC2 (stereo partly drawn) [Example 389, (S)-quinuclidin-3-yl (5′-(4-fluorophenyl)-1′,3′-dihydrospiro[cyclopropane-1,2′-inden]-1′-yl)carbamate] | 76.5

Same assay, conditions: read-out: IC50

Row | SMILES | IC50 [nM]
36 | CC1(C)Cc2cc(-c3cnc4ccccc4c3)ccc2C1NC(=O)O[C@@H]1CN2CCC1CC2 (stereo partly drawn) [Example 143, (S)-quinuclidin-3-yl (2,2-dimethyl-5-(quinolin-3-yl)-2,3-dihydro-1H-inden-1-yl)carbamate] | 25.2
